What all share (conditions): alternatively SPA-based assay
One experiment concerns the target human αVβ1 (Homo sapiens, UniProt P05556+P06756). The experiment can be described thus: human αVβ1 HTRF binding assay. Here is the method: (§1) All binding assays used the HTRF (homogeneous time resolved fluorescence) technology from Cisbio International, therefore all assays are described as HTRF binding assays. The assay results for the Examples are listed above together with the characterization data. The HTRF binding assays are established for the following integrins: human αVβ6, human αVβ1, human αVβ3, human αVβ5, and human αVβ8. All assays used the following assay buffer: 20 mM Tris, pH 7.4, 1 mM MgCl2, 1 mM MnCl2, 0.01% Tween 20, and 0.01% BSA. Alternatively, a SPA-based assay was used for evaluation of receptor binding.
(§2) The SPA-based assay was carried out according to the protocol and procedures similar to the ones described in the following reference with appropriate modifications to agents and ligands which are readily understood by one skilled in the art: Pachter J A, Zhang R, Mayer-Ezell R., “Scintillation proximity assay to measure binding of soluble fibronectin to antibody-captured αVβ1 integrin” Anal Biochem. 1995 Sep. 1; 230(1):101-7.

The target of the next experiment is T1, human αVβ6 (Homo sapiens, UniProt P06756+P18564).
T1 construct: purchased R & D systems 3817-AV
The experiment in a line: human αVβ6 HTRF binding assay. The method in brief: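 Biotinylated recombinant human αVβ6 (1.25 nM final) incubated with FITC-fibronectin (5 nM final) 1 h at RT, then streptavidin-terbium (0.625 nM final) added and left overnight at RT in the dark before HTRF reading. Buffer: 20 mM Tris pH 7.4, 1 mM MgCl2, 1 mM MnCl2, 0.01% Tween 20, 0.01% BSA.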
(In TR-FRET formats the signal depends on donor and acceptor labels being close together.)

The next experiment addresses human αVβ8 (Homo sapiens, UniProt P06756+P26012). The experiment can be described thus: human αVβ8 HTRF binding assay. Here is the method:
as §1, §2

For another experiment, the target named is human αVβ5 (Homo sapiens, UniProt P06756+P18084). The experiment in a line: human αVβ5 HTRF binding assay. The procedure:
as §1, §2

For a further experiment, the target named is human αVβ3 (Homo sapiens, UniProt P05106+P06756). The experiment can be described thus: human αVβ3 HTRF binding assay. Here is the method: as §1, §2

The record followed here is patent US11639353B2, “Cyclobutanes- and azetidine-containing mono and spirocyclic compounds as αV integrin inhibitors” (BRISTOL-MYERS SQUIBB COMPANY, priority 2016, dated 2023).

Molecules are shown by their SMILES.

Chain of human αVβ3 (P06756 31-992 limits assumed): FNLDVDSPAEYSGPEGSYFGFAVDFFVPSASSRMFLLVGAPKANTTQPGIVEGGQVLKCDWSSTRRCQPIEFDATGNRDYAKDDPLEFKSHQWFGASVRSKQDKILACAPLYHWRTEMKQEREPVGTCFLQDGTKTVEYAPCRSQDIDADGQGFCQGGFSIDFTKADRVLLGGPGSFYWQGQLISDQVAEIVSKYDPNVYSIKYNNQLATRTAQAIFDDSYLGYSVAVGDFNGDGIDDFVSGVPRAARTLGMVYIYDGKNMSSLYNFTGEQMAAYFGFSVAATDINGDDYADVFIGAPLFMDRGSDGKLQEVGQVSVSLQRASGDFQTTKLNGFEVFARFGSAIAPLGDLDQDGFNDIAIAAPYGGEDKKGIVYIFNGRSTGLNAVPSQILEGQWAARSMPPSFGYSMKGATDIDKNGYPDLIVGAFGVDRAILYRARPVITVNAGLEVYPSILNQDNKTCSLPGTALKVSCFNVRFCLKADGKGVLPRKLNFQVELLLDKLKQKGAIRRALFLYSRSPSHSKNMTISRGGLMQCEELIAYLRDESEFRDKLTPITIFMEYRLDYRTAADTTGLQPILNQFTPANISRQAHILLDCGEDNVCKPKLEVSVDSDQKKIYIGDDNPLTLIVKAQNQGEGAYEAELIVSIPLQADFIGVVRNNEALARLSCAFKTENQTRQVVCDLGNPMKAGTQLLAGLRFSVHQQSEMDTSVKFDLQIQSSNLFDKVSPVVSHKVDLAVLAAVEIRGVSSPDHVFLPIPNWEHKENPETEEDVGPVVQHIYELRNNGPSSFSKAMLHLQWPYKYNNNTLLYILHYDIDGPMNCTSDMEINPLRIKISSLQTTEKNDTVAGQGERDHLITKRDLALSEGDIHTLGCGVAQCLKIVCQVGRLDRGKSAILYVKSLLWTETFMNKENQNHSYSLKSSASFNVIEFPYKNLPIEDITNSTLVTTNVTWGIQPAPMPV
Chain of human αVβ3 (P05106 27-718 limits assumed): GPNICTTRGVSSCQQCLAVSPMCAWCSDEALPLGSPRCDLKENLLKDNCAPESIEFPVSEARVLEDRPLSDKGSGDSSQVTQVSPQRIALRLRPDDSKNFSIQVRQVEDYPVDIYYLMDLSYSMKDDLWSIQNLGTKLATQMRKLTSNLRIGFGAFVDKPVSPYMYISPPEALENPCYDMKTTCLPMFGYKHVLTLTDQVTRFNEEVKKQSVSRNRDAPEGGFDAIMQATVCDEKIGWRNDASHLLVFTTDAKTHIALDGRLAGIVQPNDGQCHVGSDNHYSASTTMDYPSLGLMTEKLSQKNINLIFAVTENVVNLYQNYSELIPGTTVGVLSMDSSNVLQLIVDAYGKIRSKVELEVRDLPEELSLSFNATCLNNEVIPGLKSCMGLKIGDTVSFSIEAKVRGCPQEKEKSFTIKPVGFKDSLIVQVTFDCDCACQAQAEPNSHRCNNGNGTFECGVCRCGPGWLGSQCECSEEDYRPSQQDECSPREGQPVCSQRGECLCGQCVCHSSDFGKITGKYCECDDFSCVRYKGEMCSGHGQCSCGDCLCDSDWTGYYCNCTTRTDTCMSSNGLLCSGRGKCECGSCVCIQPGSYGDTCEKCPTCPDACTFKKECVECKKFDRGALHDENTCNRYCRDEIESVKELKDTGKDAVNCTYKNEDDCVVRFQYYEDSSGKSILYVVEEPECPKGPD
Chain of human αVβ8 (P06756 31-992 limits assumed): as the sequence (P06756 31-992 limits assumed) above
Chain of human αVβ8 (P26012 43-684 limits assumed): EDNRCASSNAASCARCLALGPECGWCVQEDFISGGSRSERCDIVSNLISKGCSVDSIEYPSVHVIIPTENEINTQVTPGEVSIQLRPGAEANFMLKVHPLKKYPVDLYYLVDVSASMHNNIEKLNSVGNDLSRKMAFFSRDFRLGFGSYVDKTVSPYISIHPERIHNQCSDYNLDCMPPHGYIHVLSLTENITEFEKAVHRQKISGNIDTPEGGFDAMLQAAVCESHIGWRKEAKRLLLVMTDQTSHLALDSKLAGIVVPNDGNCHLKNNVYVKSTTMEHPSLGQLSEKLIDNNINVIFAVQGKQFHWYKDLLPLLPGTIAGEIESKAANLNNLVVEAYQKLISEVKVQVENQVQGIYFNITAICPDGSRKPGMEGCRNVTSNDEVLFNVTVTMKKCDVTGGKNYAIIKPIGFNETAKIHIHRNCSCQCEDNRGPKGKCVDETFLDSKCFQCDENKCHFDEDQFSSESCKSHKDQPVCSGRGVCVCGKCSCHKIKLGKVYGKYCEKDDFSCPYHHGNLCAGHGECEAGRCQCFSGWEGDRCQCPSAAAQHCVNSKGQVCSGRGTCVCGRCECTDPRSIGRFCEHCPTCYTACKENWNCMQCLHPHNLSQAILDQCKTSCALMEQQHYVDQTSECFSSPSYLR
Chain of human αVβ1 (P06756 31-992 limits assumed): as the sequence (P06756 31-992 limits assumed) above
Chain of human αVβ1 (P05556 21-728 limits assumed): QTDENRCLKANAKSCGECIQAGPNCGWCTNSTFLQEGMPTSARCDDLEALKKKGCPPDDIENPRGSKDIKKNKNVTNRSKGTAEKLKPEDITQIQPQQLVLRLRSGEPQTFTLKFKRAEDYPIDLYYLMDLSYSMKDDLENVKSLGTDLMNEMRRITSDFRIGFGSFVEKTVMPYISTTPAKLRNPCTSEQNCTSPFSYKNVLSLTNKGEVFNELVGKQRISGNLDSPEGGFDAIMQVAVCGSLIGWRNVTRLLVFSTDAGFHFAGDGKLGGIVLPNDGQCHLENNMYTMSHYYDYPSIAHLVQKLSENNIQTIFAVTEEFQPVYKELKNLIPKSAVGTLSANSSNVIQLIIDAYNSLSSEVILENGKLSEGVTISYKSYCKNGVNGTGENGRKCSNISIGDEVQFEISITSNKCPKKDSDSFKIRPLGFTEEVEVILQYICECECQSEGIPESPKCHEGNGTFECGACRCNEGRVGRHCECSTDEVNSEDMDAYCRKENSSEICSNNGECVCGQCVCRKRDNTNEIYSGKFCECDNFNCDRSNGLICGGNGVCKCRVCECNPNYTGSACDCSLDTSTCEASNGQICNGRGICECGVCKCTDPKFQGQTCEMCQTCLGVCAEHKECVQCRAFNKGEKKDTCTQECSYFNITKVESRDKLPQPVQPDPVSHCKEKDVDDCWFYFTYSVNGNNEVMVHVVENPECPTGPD
Chain of human αVβ5 (P06756 31-992 limits assumed): as the sequence (P06756 31-992 limits assumed) above
Chain of human αVβ5 (P18084 24-719 limits assumed): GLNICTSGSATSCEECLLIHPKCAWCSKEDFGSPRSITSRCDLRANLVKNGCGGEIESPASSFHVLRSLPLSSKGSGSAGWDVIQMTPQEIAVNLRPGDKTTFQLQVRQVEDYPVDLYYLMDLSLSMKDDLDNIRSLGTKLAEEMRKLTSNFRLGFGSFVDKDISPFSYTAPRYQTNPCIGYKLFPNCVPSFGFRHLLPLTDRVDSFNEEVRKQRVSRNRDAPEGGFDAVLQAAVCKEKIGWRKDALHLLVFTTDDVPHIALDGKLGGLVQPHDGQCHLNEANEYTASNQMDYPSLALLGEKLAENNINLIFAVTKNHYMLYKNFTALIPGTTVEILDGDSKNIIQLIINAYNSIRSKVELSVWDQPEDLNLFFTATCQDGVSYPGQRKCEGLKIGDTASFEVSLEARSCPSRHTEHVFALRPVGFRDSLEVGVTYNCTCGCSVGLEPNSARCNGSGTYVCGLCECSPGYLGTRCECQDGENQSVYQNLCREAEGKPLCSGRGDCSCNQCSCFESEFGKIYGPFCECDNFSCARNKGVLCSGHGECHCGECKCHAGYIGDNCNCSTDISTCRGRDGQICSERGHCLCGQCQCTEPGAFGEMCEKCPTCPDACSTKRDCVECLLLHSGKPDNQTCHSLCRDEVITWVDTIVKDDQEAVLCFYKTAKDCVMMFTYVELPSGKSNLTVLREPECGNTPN
T1 sequence (P06756 31-992 limits assumed): as the sequence (P06756 31-992 limits assumed) above
T1 sequence (P18564 22-707 limits assumed): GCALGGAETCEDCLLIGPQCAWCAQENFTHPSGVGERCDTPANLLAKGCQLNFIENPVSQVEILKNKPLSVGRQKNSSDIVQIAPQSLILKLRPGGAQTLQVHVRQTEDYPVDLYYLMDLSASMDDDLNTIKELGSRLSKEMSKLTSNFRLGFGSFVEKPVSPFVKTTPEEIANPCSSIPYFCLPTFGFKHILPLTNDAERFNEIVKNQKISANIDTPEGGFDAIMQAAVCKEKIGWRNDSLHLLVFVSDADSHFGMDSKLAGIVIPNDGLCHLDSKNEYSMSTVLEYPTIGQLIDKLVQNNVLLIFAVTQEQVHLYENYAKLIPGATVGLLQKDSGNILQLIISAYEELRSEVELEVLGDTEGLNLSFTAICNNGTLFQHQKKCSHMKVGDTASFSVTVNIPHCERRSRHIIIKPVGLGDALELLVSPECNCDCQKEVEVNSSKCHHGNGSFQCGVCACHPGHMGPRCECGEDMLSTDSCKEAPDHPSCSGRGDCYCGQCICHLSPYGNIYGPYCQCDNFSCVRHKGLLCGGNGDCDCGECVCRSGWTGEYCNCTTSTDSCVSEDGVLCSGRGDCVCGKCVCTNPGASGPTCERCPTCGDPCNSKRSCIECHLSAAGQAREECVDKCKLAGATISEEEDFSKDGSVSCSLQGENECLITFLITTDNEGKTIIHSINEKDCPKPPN

As usually defined, the IC50 is the concentration that inhibits the measured activity by half. Read a low IC50 as higher potency. As to `COc1ncc([C@H](CC(=O)O)N2CC(CCCCc3ccc4c(n3)NCCC4)C2=O)cn1` (stereo partly drawn) [Example 69], the IC50 at human αVβ1 is 1230 nM; on human αVβ6 it was 3.27 nM; on human αVβ8, 2000 nM; at human αVβ5, 0.32 nM; at human αVβ3, 1.79 nM.

As for `O=C(O)C[C@H](NC(=O)N1CC(CCc2ccc3c(n2)NCCC3)C1)c1cnc2ccccc2c1` [Example 96], the IC50 at human αVβ1 was determined as 247 nM; on human αVβ6 it was 1.9 nM; at human αVβ8 it was 120 nM; on human αVβ5, 1.3 nM; on human αVβ3 it was 2.3 nM.

Turning to `O=C(O)C[C@H](NC(=O)[C@H]1C[C@H](CCc2ccc3c(n2)NCCC3)C1)c1ccc2c(c1)OCC2` [Example 88], the IC50 amounted to 150 nM on human αVβ1; 0.87 nM at human αVβ6; 190 nM at human αVβ8; 1 nM at human αVβ5; 2.7 nM on human αVβ3.

As for `O=C(N[C@@H](CNC(=O)C1(F)CN(CCc2ccc3c(n2)NCCC3)C1)C(=O)O)OCc1ccccc1` [Example 45], the IC50 came to 28 nM on human αVβ1; 0.5 nM on human αVβ6; 89 nM on human αVβ8; 0.3 nM on human αVβ5; 3.07 nM at human αVβ3.

For the compound `COc1ccc([C@H](CC(=O)O)NC(=O)N2CC(CCc3ccc4c(n3)NCCC4)C2)cc1F` [Example 63], the IC50 on human αVβ1 was found to be 184 nM; at human αVβ6, 2.22 nM; at human αVβ8 it was 410 nM; at human αVβ5, 9.4 nM; at human αVβ3, 2.8 nM.

For the compound `COc1ccc([C@H](CC(=O)O)NC(=O)N2CC(CCc3ccc4c(n3)NCCC4)C2)cn1` [Example 6, (S)-3-(6-Methoxypyridin-3-yl)-3-(3-(2-(5,6,7,8-tetrahydro-1,8-naphthyridin-2-yl)ethyl)azetidine-1-carboxamido)propanoic acid], the IC50 was 510 nM at human αVβ1; 2.8 nM on human αVβ6; 430 nM at human αVβ8; 7.7 nM at human αVβ5; 6.3 nM at human αVβ3.
